The results in this text go back to patent publication US20150246136A1, “NOVEL BINDER-DRUG CONJUGATES (ADCs) AND USE OF SAME” (priority 2011, published 2015).

The series can be described thus: Pharmacokinetics in the HT29 tumor model, non-transfected tumors. It is filed as in vivo. Conditions: after i.v. 16 mg/kg Example 60. As for the experimental part:
C-2.3 Pharmacokinetics in the HT29 Tumor Model with Mesothelin-Transfected HT29 Cells and Non-Transfected Cells
After i.v. administration of 16 mg/kg from Example 60, the plasma and tumor concentrations of Example 60 were measured along with potentially occurring metabolites such as those of Example 119, for example. […] In the animals with non-transfected tumors, the exposure in the plasma in Example 119 was identical to the exposure in the plasma of animals with transfected tumors. […] This is indicative of a definite targeting effect in the tumor in the presence of the antigen.
Analysis for Quantitation of the Compound from Example 119 […]
In workup of a tumor, it was mixed with a four-fold amount of methanol. […] After agitating again, the tumor sample was ready for measurement.
Finally, the measurement of both matrix samples was performed on the HPLC coupled atmospheric pressure ionization/tandem mass spectrometer by means of turbo ion spray interface (TISP) on an API4000 instrument from the company SCIEX. The following m/z transitions were measured: […]
For the calibration, plasma samples with concentrations of 0.5-2000 μg/L were mixed. The limit of quantitation (LOQ) was 2 μg/L. The linear range was from 2 to 1000 μg/L. […]

As to `CC[C@H](C)[C@@H]([C@@H](CC(=O)N1CCC[C@H]1[C@H](OC)[C@@H](C)C(=O)N[C@@]1(C(=O)N2CCCCO2)C[C@@H]1c1ccccc1)OC)N(C)C(=O)[C@@H](NC(=O)[C@H](C(C)C)N(C)CCCC(=O)NNC(=O)CCCCCN1C(=O)CC(SC[C@H](N)C(=O)O)C1=O)C(C)C` (stereo partly drawn) [Example 119, N-(4-{2-[6-(3-{[(2R)-2-amino-2-carboxyethyl]sulfanyl}-2,5-dioxopyrrolidin-1-yl)hexanoyl]hydrazino}-4-oxobutyl)-N-methyl-L-valyl-N-[(3R,4S,5S)-3-methoxy-1-{(2S)-2-[(1R,2R)-1-methoxy-2-methyl-3-{[(1S,2R)-1-(1,2-oxazinan-2-ylcarbonyl)-2-phenylcyclopropyl]amino}-3-oxopropyl]pyrrolidin-1-yl}-5-methyl-1-oxoheptan-4-yl]-N-methyl-L-valinamide], the “AUC in the tumor versus transfected animals” value was “approx. eight times lower” and the “exposure in the plasma versus animals with transfected tumors” value is given as “identical”.
